Here are results for 14 compounds from patent US20260000642A1 (Tay Therapeutics Limited, priority 2022, published 2026).

Each structure is given as a SMILES string.

One may read the IC50 as the concentration at which inhibition is half-maximal. A lower IC50 goes with inhibition by little substance.

One series concerns the target T1, BRD4 BD2 (Homo sapiens, UniProt O60885).
T1 construct: HEK293 cells were transfected using NanoLuc-BRD4-BD1 or NanoLuc-BRD4-BD2 fusion vectors; host or cells: HEK293
The series is described as follows: NanoBRET bromodomain assay, NanoLuc-BRD4-BD2 fusion vector in HEK293 cells. The class given is cell-based. To be noted: for BRD4 BD2% Activity Remaining @ 10 uM: first and second (2) batches; for Fold selectivity: IC50 for BRD4 BD1 divided by IC50 for BRD4 BD2, qualitative if an IC50 is at the upper limit; for IC50: NanoBRET, HEK293 cells, top concentration 10 μM. The source says:
(§1) Bromodomain Assay Procedure

For another series, the target named is T2, BRD4 BD1 (Homo sapiens, UniProt O60885).
T2 construct: HEK293 cells were transfected using NanoLuc-BRD4-BD1 or NanoLuc-BRD4-BD2 fusion vectors; host or cells: HEK293
Briefly: NanoBRET bromodomain assay, NanoLuc-BRD4-BD1 fusion vector in HEK293 cells. To be noted: top concentration 10 μM. The format is cell-based.
Excerpt: as §1
Background: BRET reads energy transfer from a luciferase to a nearby fluorophore.

Series [1] can be described thus: Sprague-Dawley rat pharmacokinetics (IV and PO). The note with it: male Sprague-Dawley rats, cassette mode, Method 1; for IV T1/2: IV 1 mg/kg. The class given is in vivo. The text has this:
BET protein inhibitors with a long half-life and good oral bioavailability in in vivo DMPK parameters are promising oral drug candidates. Some of the exemplary compounds of the current disclosure have a long half-life and good oral bioavailability in in vivo DMPK parameters in the Sprague-Dawley rat following intravenous (IV) and oral (PO) dosing. The experimental methods and results (Table 5) are provided hereinafter.
Sprague-Dawley Rat Pharmacokinetics, Method 1
Compounds were formulated in 5% DMSO, 40% PEG-400, 55% Milli-Q water at a concentration of 0.2 mg/mL for IV and at 0.5 mg/mL for PO. Two male Sprague-Dawley rats per arm were dosed with up to 5 compounds in cassette mode, which each compound being dosed at 1 mg/kg IV and 5 mg/kg PO. Blood was sampled at various timepoints and plasma isolated. 50 μL of plasma with 5 μL of blank Sprague-Dawley rat plasma were added to 200 μL of acetonitrile containing IS mixture. The samples were vortexed for 30 s. After centrifugation at 4 degrees Celsius, 3900 rpm for 15 min, the supernatant was diluted 3 times with water. 20 μL of diluted supernatant was injected into the LC/MS/MS system for quantitative analysis and concentration of analyte determined by comparison with matrix matched standard curve. WinNonlin (Phoenix™, version 8.3) or other similar software may be used for pharmacokinetic calculations.

Series [2] is described as follows: Plasma stability assay, rat plasma. To be noted: 37° C., Method 2 (10 μM). The class given is in vitro ADME. The protocol: Exemplary compounds of the disclosure are stable upon incubation in mouse plasma. Stability is expressed as a % remaining after 120 minutes. The experimental methods and results (Table 2) are provided hereinafter.
Plasma Stability Assay, Method 1
From stock solution of compound in 10 mM DMSO, a working solution of 1 mM is prepared by diluting the compound in DMSO. To 398 μL of plasma pre-warmed at 37° C. for 15 minutes), 2 μL of working solution of compound is added, resulting in a final concentration of 5 μM (0.5% DMSO) for the compound. The sample is then incubated at 37° C. Aliquot is withdrawn at specified time-points (0, 15, 30, 60 and 120 mins). The reaction is stopped by addition of 450 μL cold acetonitrile containing internal standard (IS). […] Aliquots of the supernatant is analysed using LC-MS/MS. The percent remaining of the compound at each time point is calculated with respect to the control sample (0 min time-point).
Plasma Stability Assay, Method 2
A working solution of compound (500 μM) is prepared in DMSO (100%). To 735 μL of plasma, 15 μL of working solution of compound is added—resulting in a final concentration of 10 μM (2% DMSO) for the compound. The sample is then incubated at 37° C. Aliquot is withdrawn at time-points—0, 15, 30, 60, 90 and 120 mins. The reaction is stopped by using chilled acetonitrile containing internal standard (IS). The samples are centrifuged and the supernatants analyzed using LC-MS/MS. The percent remaining of the compound at each time point is calculated with respect to the control sample (0 min time-point).

In the next series the test system is IL-17A. The series is described as follows: Human PBMC assay, IL-17A by ELISA (CD2/CD3/CD28 bead stimulation). The class given is cell-based. To be noted: 72 hours. The protocol:
(§2) CD2, CD3, and CD28 antibody-coated beads from the T-cell activation/expansion kit (Miltenyi Biotec) were added to the PBMC at a bead-to-cell ratio of 1:2. The mixture of PBMCs and beads were seeded into the wells of the round-bottom 96-well plate at a concentration of 2×10^5 cells/well in a total volume of 200 μL. The cells were cultured for 72 hours at 37° C. and 5% CO2 and then supernatants were collected and IL-17A and IL-22 levels were measured by ELISA. […] The final compound concentration ranged from 30,000 nM to 0.005 nM and the final DMSO concentration per well was 0.3%. PBMCs were seeded at approximately […] in the wells of the 96-well tissue culture plate in a total volume of 190 μL. The plate was incubated for 1 hour at 37° C. and 5% CO2. […] The cells were then cultured for 24 hours at 37° C. and 5% CO2. The supernatant was collected and CXCL10 levels were measured by ELISA.

The test system of a further series is IL-22. The series is described as follows: Human PBMC assay, IL-22 by ELISA (CD2/CD3/CD28 bead stimulation). The note with it: 72 hours. The format is cell-based. Here is the method:
as §2
For orientation: ELISA stands for enzyme-linked immunosorbent assay.

The subject of another series is CXCL10. Briefly: Human PBMC assay, CXCL10 by ELISA (IFN-γ stimulation). The format is cell-based. The protocol: The impact of Examples 23, 80, and 101 on IL-17A, IL-22, and CXCL10 levels was analyzed in cryopreserved human peripheral blood mononuclear cells (PBMC) by ELISA.
For IL-17A and IL-22 assays, Examples 23, 80, and 101 were serially diluted from 10 mM in DMSO and further diluted in assay media to 100× the required final concentration, of which, 2 μL was added per well to a round-bottom 96-well tissue culture plate where the final DMSO concentration per well was 0.1%. CD2, CD3, and CD28 antibody-coated beads from the T-cell activation/expansion kit (Miltenyi Biotec) were added to the PBMC at a bead-to-cell ratio of 1:2. The mixture of PBMCs and beads were seeded into the wells of the round-bottom 96-well plate at a concentration of 2×10^5 cells/well in a total volume of 200 μL. The cells were cultured for 72 hours at 37° C. and 5% CO2 and then supernatants were collected and IL-17A and IL-22 levels were measured by ELISA. For the CXCL10 assay, Examples 23, 80, and 101 were serially diluted from 10 mM in DMSO and further diluted in assay media to 100× the required final concentration, of which 2 μL was added per well to a 96-well tissue culture plate. The final compound concentration ranged from 30,000 nM to 0.005 nM and the final DMSO concentration per well was 0.3%. PBMCs were seeded at approximately […] in the wells of the 96-well tissue culture plate in a total volume of 190 μL. The plate was incubated for 1 hour at 37° C. and 5% CO2. The cells were then stimulated with IFN-γ (15 ng/mL final concentration) in a volume of 10 μL. The cells were then cultured for 24 hours at 37° C. and 5% CO2. The supernatant was collected and CXCL10 levels were measured by ELISA.

For `CCNC(=O)c1cc(OC(C)c2ccccn2)c(C(=O)NC)[nH]1` (racemic) [Example 96, N^5-ethyl-N^2-methyl-3-(1-(pyridin-2-yl)ethoxy)-1H-pyrrole-2,5-dicarboxamide], the “BRD4 BD2% Activity Remaining @ 10 uM” value on BRD4 BD2 (listed as 96 (2)) stood at 64%. Moreover, at BRD4 BD2 (listed as 96(2)*), the Fold selectivity entry is “— (Fold ≥0 and ≤2)”.

Consider `CNC(=O)c1[nH]c(C(=O)N[C@@H]2CC[C@@H](O)C2)cc1O[C@@H](C)c1ccccc1` (racemic) [Example 116, N^5-(trans-3-hydroxycyclopentyl)-N^2-methyl-3-((S)-1-phenylethoxy)-1H-pyrrole-2,5-dicarboxamide], for which, at BRD4 BD2, the 50% inhibitory concentration (IC50) lay in the range of 0.05 to 0.2 µM.

On to `CNC(=O)c1[nH]c(C(=O)NC2CCC2)cc1OC(C)c1ccc(Cl)cc1` (single isomer, unassigned) [Example 28, 3-(1-(4-chlorophenyl)ethoxy)-N^5-cyclobutyl-N^2-methyl-1H-pyrrole-2,5-dicarboxamide], for which, at BRD4 BD1, the IC50 was at least 10 µM.

`CNC(=O)c1[nH]c(C(=O)NC2COC2)cc1OC(C)c1ccc(Cl)cc1` (single isomer, unassigned) [Example 31, 3-(1-(4-chlorophenyl)ethoxy)-N^2-methyl-N^5-(oxetan-3-yl)-1H-pyrrole-2,5-dicarboxamide]: the “IV T1/2” value in series [1] amounted to 36 min. Moreover, the “PO F (%)” value in series [1] (PO 5 mg/kg (IV 1 mg/kg)) amounted to 15%. Besides, the IC50 against BRD4 BD2 is 0.05 to 0.2 µM; at BRD4 BD1, at least 10 µM. Further, in series [2], the “Plasma Stability (% remaining at 120 minutes) Rat” value came to 81%.

As for `CNC(=O)c1[nH]c(C(=O)N[C@H]2CC[C@H](O)CC2)cc1OC(C)c1ccccc1F` (single isomer, unassigned) [Example 45], the IC50 on BRD4 BD2 was 0.05 to 0.2 µM; on BRD4 BD1 it was at least 10 µM. Also, in series [2], the “Plasma Stability (% remaining at 120 minutes) Rat” value turned out to be 88%.

With `CCNC(=O)c1cc(OC(C)c2c(F)cccc2F)c(C(=O)NC)[nH]1` (single isomer, unassigned) [Example 55, 3-(1-(2,6-difluorophenyl)ethoxy)-N^5-ethyl-N^2-methyl-1H-pyrrole-2,5-dicarboxamide], the IC50 against BRD4 BD2 was over 10 µM; against BRD4 BD1, at least 10 µM. Besides, in series [2], the “Plasma Stability (% remaining at 120 minutes) Rat” value is given as 88%.

In turn, `CCNC(=O)c1cc(OC(C)c2c(C)cccc2C)c(C(=O)NC)[nH]1` (single isomer, unassigned) [Example 64, 3-(1-(2,6-dimethylphenyl)ethoxy)-N^5-ethyl-N^2-methyl-1H-pyrrole-2,5-dicarboxamide] returned an IC50 on BRD4 BD1 of at least 10 µM.

As for `CNC(=O)c1[nH]c(C(=O)N[C@H]2CC[C@H](O)CC2)cc1O[C@@H](C)c1ccnnc1` (single isomer, unassigned) [Example 92, N^5-(4-hydroxycyclohexyl)-N^2-methyl-3-(1-(pyridazin-4-yl)ethoxy)-1H-pyrrole-2,5-dicarboxamide], the IC50 against BRD4 BD1 is at least 10 µM.

Turning to `CNC(=O)c1[nH]c(-c2ncc(C)[nH]2)cc1O[C@@H](C)c1ccccc1` [Example 23, (S)—N-methyl-5-(5-methyl-1H-imidazol-2-yl)-3-(1-phenylethoxy)-1H-pyrrole-2-carboxamide], in the series with IL-17A, the “IC50 for IL-17A relative to GSK620” value is recorded as “decreased mean 1050”. In addition, the “IC50 for IL-22 relative to GSK620” value in the series with IL-22 was “decreased mean 1050”. For the same compound, the “selectivity to induction of CXCL10 relative to IL-17A and IL-22” value in the series on CXCL10 is “showed selectivity”.

On to `CNC(=O)c1[nH]c(-c2ncc(C)[nH]2)cc1O[C@H](C)c1ccccc1` [Example 24, (R)—N-methyl-5-(5-methyl-1H-imidazol-2-yl)-3-(1-phenylethoxy)-1H-pyrrole-2-carboxamide], for which, on BRD4 BD2 (listed as 24 (2)), the “BRD4 BD2% Activity Remaining @ 10 uM” value came to 78%. For the same compound, the Fold selectivity result on BRD4 BD2 was “X (Fold >2 and ≤50)”; at BRD4 BD2 (listed as 24 (2)*), “— (Fold ≥0 and ≤2)”.

For the compound `CNC(=O)c1[nH]c(C(=O)NC2CC2)cc1O[C@@H](C)c1ccccc1F` [Example 59, (S)—N^5-cyclopropyl-3-(1-(2-fluorophenyl)ethoxy)-N^2-methyl-1H-pyrrole-2,5-dicarboxamide], the “IV T1/2” value in series [1] was determined as 66 min. The “PO F (%)” value in series [1] (PO 5 mg/kg (IV 1 mg/kg)) is 70%. Also, in series [2], the “Plasma Stability (% remaining at 120 minutes) Rat” value amounted to 50%.

Take `CNC(=O)c1[nH]c(C(=O)NC2CC2)cc1O[C@@H](C)c1ccc(Cl)cc1` [Example 62, (S)-3-(1-(4-chlorophenyl)ethoxy)-N^5-cyclopropyl-N^2-methyl-1H-pyrrole-2,5-dicarboxamide]: the bioavailability in series [1] (rat, plasma, PO 5 mg/kg (IV 1 mg/kg), read-out: PO F (%)) is 8%. In addition, the “Plasma Stability (% remaining at 120 minutes) Rat” value in series [2] came out at 82%.

Consider `CCNC(=O)c1[nH]c(C(=O)NC)c(O[C@@H](C)c2ccccc2F)c1C` [Example 74], for which, at BRD4 BD2, the Fold selectivity result was “X (Fold >2 and ≤50)”; the IC50 lay in the range of 1 to 10 µM. The compound further returned an IC50 on BRD4 BD1 of at least 10 µM.

As for `CNC(=O)c1[nH]c(-c2cnn(C(C)C)c2)cc1O[C@@H](C)c1ccccc1` [Example 80, (S)-5-(1-isopropyl-1H-pyrazol-4-yl)-N-methyl-3-(1-phenylethoxy)-1H-pyrrole-2-carboxamide], the “IC50 for IL-17A relative to GSK620” value in the series on IL-17A was “increased mean 1050”. In addition, in the series on IL-22, the “IC50 for IL-22 relative to GSK620” value is reported as “decreased mean 1050”. Besides, in the series on CXCL10, the “selectivity to induction of CXCL10 relative to IL-17A and IL-22” value is “showed selectivity”.
